PubChem BioAssay AID2305 (GlaxoSmithKline (GSK), 2010)
“And” between values parts separate entries of the source, which are not always exact repeats. Equal entries are not always repeated.

Each compound was assayed on P. falciparum 3D7 growth, pLDH absorbance (assay: blood-stage malaria parasite growth potency – strain 3D7, dose response (AID 2305)).
For Cc1cccc2[nH]c(-c3ccc(-c4cccc(CN5CCN(c6ccncc6)CC5)c4)cc3)nc12, the IC50 was 0.12 µM. Work on CN(C)CCCNC(=O)c1ccccc1Sc1ccccc1C#N yielded an IC50 of 1.14 µM. O=C(Nc1ccc([N+](=O)[O-])cc1)c1nn(-c2ccccc2)cc1N=Cc1cccc(O)c1 showed an IC50 of 0.89 µM. In the case of NC(=O)C1Cc2ccccc2CN1CC(=O)Nc1ccccc1Sc1ccccc1 (centres undefined), the IC50 is reported as 0.07 µM. With NC(=O)C1CCN(Cc2cccc(-c3ccc(-c4nc5ccc(C(F)(F)F)cc5[nH]4)cc3)c2)CC1 the IC50 was 0.61 µM. In the case of O=S(=O)(c1ccc(OCc2ccc(Cl)cc2)cc1)c1cc2c(c(-c3ccc(F)cc3)c1)CCN(CC1CC1)CC2, the IC50 is reported as 1.12 µM. COc1cc(NC(=O)N2CCOC(CCN3CCC4(CCc5ccccc54)CC3)(c3ccc(Cl)c(Cl)c3)C2)cc(OC)c1 (centres undefined) was tested, and the IC50 was 0.82 µM. In the case of Cc1ccc(/C=C/C(=O)NC2CCC(CN3CCC(c4c[nH]c5ccccc45)CC3)CC2)cc1C (centres undefined), the IC50 is reported as 0.82 µM and 0.83 µM. Work on CC(C)CCN1C(=O)C(NC(=O)Oc2ccccc2)C(=O)N(CC23CC4CC(CC(C4)C2)C3)c2ccccc21 (centres undefined) yielded an IC50 of 0.75 µM. O=C(c1cc2nc3c(c(C(F)(F)F)n2n1)CCc1ccccc1-3)N1CCN2CCCC2C1 (centres undefined) was tested, and the IC50 was 0.95 µM. For CCOc1ccc(Br)cc1/C=C/C(=O)Nc1ccc2c(c1)CN(C)CCC2, the IC50 was 0.82 µM. Work on COc1ccc(C(=O)Nc2cc(Br)c3c(c2)CNCC3)cc1Br yielded an IC50 of 0.91 µM. O=C(Nc1ccccc1)N(Cc1cccc(-c2ccc(CNC3CCCC3)cc2)c1)C1CCN(Cc2ccccc2)CC1 showed an IC50 of 0.39 µM. Cc1[nH]cnc1CSCCNC(N)=NCCCCCCCCN=C(N)NCCSCc1nc[nH]c1C showed an IC50 of 0.27 µM. In the case of COc1ccc2nc3cc(Cl)ccc3c(NCCCO)c2c1, the IC50 is reported as 0.78 µM. CCc1nnc2sc(-c3cccc(NC(=O)c4ccc(OC)c(Cl)c4)c3)nn12 was tested, and the IC50 was 1.14 µM. N#CC(c1cccc(Cl)c1)c1ccc2c(C(F)(F)F)cc(C(F)(F)F)nc2n1 (centres undefined) showed an IC50 of 0.73 µM. COC(=O)c1cccc(CNCc2cccc(-c3cccc(-c4nc5ccc(C(F)(F)F)cc5[nH]4)c3)c2)c1 gave an IC50 of 0.17 µM. For CCCNCc1ccc(-c2ccc(CN(CCOC)C(=O)c3ccco3)cc2)nc1, the IC50 was 1 µM. COc1ccc2ncc(Cl)c(N3CCC(CCNCc4ccc5c(n4)NC(=O)CS5)CC3)c2c1 showed an IC50 of 0.96 µM. O=C(NC1CCN(CCN2CCC(c3c[nH]c4ccccc34)CC2)CC1)c1ccc(-c2ccc(C(F)(F)F)cc2)cc1 showed an IC50 of 0.2 µM. C=Cc1c(C2CCN(CCCCNC(=O)c3ccc(-c4ccc(C#N)cc4)cc3)CC2)ccc2c1CCCC2 was tested, and the IC50 was 0.88 µM. In the case of CCc1c[nH]c2c(N3CCCS3(=O)=O)cc(C(=O)N[C@@H](Cc3ccccc3)[C@H](O)CNC3CCCCC3)cc12, the IC50 is reported as 0.77 µM. Compound CN1CCC(NCc2ccc(-c3ccc(S(=O)(=O)NCc4ccccc4)s3)cc2)CC1 has an IC50 of 0.77 µM. With CN1C[C@@H](c2ccccc2)c2cc(O)c(CN3CCCCC3)cc2C[C@H]1Cc1ccccc1 the IC50 was 0.18 µM. CCN(CC)CCN(Cc1ccc(-c2ccc(Cl)s2)cc1)C(=O)Cn1c(CCc2cccc(F)c2F)nc(=O)c2ccccc21 showed an IC50 of 1.14 µM. For Cc1cc(F)ccc1N(c1nc(-c2cc(Cl)ccc2Cl)cs1)C1CCNC1 (centres undefined), the IC50 was 1.01 µM. Work on O=C(Nc1cccc(-c2nn3ccccc3c2-c2ccnc(Nc3cccc(N4CCCC4=O)c3)n2)c1)c1cc(F)ccc1F yielded an IC50 of 0.21 µM. O=C1Nc2cccc3c2C1(CCCN1CCC(c2c[nH]c4cc(C(F)(F)F)ccc24)CC1)CCC3 (centres undefined) showed an IC50 of 0.96 µM. For CN1CCN(CCCN(Cc2csc(-c3ccc(CNCc4ccccc4)cc3)n2)S(=O)(=O)c2ccc(F)cc2)CC1, the IC50 was 0.86 µM. For COc1cc(-n2cnc3cc(-c4ccc(Cl)cc4)sc3c2=O)ccc1OCCN1CCC(c2cccc(NC(C)=O)c2)CC1, the IC50 was 0.55 µM. For CCc1ccnc2c(N3CCCC3=O)cc(C(=O)N[C@@H](Cc3ccccc3)[C@H](O)CNC3CCOCC3)cc12, the IC50 was 0.38 µM. For COc1cc(Cc2cnc(N)nc2N)cc(OCCCCc2nn[nH]n2)c1OC, the IC50 was 0.29 µM. For NC(=O)c1ccccc1OCC(=O)Nc1cccc(-c2cccc(-c3nc4ccccc4[nH]3)c2)c1, the IC50 was 0.38 µM. Oc1ccccc1Nc1nc(NCc2ccco2)c2ccccc2n1 showed an IC50 of 0.64 µM. With O=C(NC1CC1)c1ccc(N2CCN(Cc3ccc(Cl)cc3)CC2)nc1 the IC50 was 1.34 µM. COc1ccc2nccc([C@@H](O)CN3CC[C@H](NCc4nc5c(cc4Cl)OCC(=O)N5)[C@H](F)C3)c2c1 gave an IC50 of 1.32 µM. With Cc1cc(NN=Cc2ccccc2[N+](=O)[O-])c2ccccc2n1 the IC50 was 0.78 µM. Work on Nc1ccc(-c2ccc3ccnc(N)c3c2)cn1 yielded an IC50 of 0.35 µM. Work on CCC(C)c1ccc(O)c(NC(=O)c2cncc(Br)c2)c1 (centres undefined) yielded an IC50 of 0.8 µM. Cc1nc(N)nc(N)c1-c1ccc2ccccc2c1 was tested, and the IC50 was 0.87 µM. Compound CCOc1cc(C)ccc1N1CCN(CCN2CCC(NC(=O)c3ccc(-c4ccc(C#N)cc4)cc3)CC2)CC1 has an IC50 of 1.43 µM. Work on COc1cc(CN2CCN(c3ccnc(N(C)C4CCN(C)CC4)n3)CC2)cc(Cl)c1O yielded an IC50 of 0.78 µM. Cc1cc(C)c2[nH]cc(C(=O)O)c(=O)c2c1 was tested, and the IC50 was 0.88 µM. O=C(CC(=O)Nc1cc(Cl)cc(Cl)c1)Nc1cc(Cl)cc(Cl)c1 gave an IC50 of 0.16 µM. In the case of CCCCCCCCCCS(=O)(=O)N[C@H](COCc1cccc(Oc2ccccc2)c1)COP(=O)(O)OC, the IC50 is reported as 1.02 µM. CC(=O)c1ccc(N2CCN(CCC3(c4ccc(Cl)c(Cl)c4)COCN(C(=O)c4ccccc4)C3)CC2)cc1 (centres undefined) showed an IC50 of 0.92 µM. In the case of CCOC(=O)c1ccc(NC(=O)Nc2ccc(-c3cccc(-c4nc5ccccc5[nH]4)c3)cc2)cc1, the IC50 is reported as 0.14 µM. O=C(Nc1ccc2c(c1)OCO2)c1cc(-c2cccnc2)nc2ccc(Cl)cc12 gave an IC50 of 0.52 µM. With CC(=O)Nc1cccc(C(=O)Nc2cccc(-c3ccc(-c4nc5c(C)cccc5[nH]4)s3)c2)c1 the IC50 was 0.77 µM. c1ccc2c(NCCCCCCCNc3ccnc4ccccc34)ccnc2c1 gave an IC50 of 0.17 µM. In the case of CC(C)(C)c1ccc(CN2CCC(CNC(=O)c3cc(-c4ccccc4)nc4ccccc34)CC2)cc1, the IC50 is reported as 1.02 µM. CCOC(=O)C(C)(C)Oc1ccc(C(=C2CC(C)(C)CC(C)(C)C2)c2ccc(O)cc2)cc1 showed an IC50 of 1.13 µM. For COc1cc(C(=O)NCCCN2CCN(c3cccc(Cl)c3)CC2)ccc1-c1nc2cc(Cl)c(F)cc2[nH]1, the IC50 was 1.02 µM. Cn1nc(-c2ccc(NC(=O)Nc3cc(C(F)(F)F)ccc3F)c(F)c2)c2cnc(NCCCn3ccnc3)nc21 showed an IC50 of 0.74 µM. CC(C)(C)c1ccc(CN2CCC(CNC(=O)c3cc(-c4cccc(C(F)(F)F)c4)cs3)C2)cc1 (centres undefined) gave an IC50 of 1.03 µM. For O=C(/C=C/c1ccc(Cl)c(Cl)c1)NC1CCC(CN2CCC(c3c[nH]c4cc(O)ccc34)CC2)CC1 (centres undefined), the IC50 was 0.81 µM. Work on CC(=O)Nc1ncc(C(=O)Nc2cccc(-c3cccc(-c4nc5ccc(F)cc5[nH]4)c3)c2)s1 yielded an IC50 of 0.45 µM. CCOC(=O)c1ccc(NC(=O)N[C@@H](Cc2ccc(O)cc2)C(=O)NC2CCN(Cc3ccc4c(c3)OCO4)CC2)cc1 showed an IC50 of 1.06 µM. CC1CCN(C(=O)C(Cc2c[nH]c3ccccc23)NS(=O)(=O)c2ccc(Cl)cc2)CC1 (centres undefined) gave an IC50 of 0.72 µM. Compound O=C(Nc1ccc(-c2nc3ccc(NC(=O)c4ccc(Br)cc4)cc3[nH]2)cc1)c1ccc(Br)cc1 has an IC50 of 0.79 µM. With Cc1ccc(C(=O)Nc2ccnc(N(C)C3CCN(Cc4cccc(O)c4)CC3)c2)cn1 the IC50 was 1.88 µM. CN1CCN(c2ccnc3ccc(NC(=O)Nc4cccc5c(-c6ccncc6)cccc45)cc23)CC1 gave an IC50 of 0.88 µM. With Cc1nc(N)nc(N)c1OCc1ccc(Cl)c(Cl)c1 the IC50 was 0.13 µM. NC1=NC(c2ccccc2)(c2ccccc2)C(=O)N1Cc1ccccc1Br was tested, and the IC50 was 0.86 µM. Compound CCCCN1CCN(Cc2cccc(NC(=O)c3ccc(Cl)c(Cl)c3)c2)CC1 has an IC50 of 1.16 µM. O=C(Nc1ccc(N2CCCCC2)c(Cl)c1)c1ccc(Br)o1 was tested, and the IC50 was 0.55 µM. With O=C(NCc1cccc(C(F)(F)F)c1)[C@@H]1CCCN1C(=O)c1ccc(O)c(-c2ccc(Cl)c(Cl)c2)c1 the IC50 was 0.79 µM. COc1cccc(C(=O)[C@H]2C[C@@H]2CN2CC=C(c3c[nH]c4cccc(Br)c34)CC2)c1 was tested, and the IC50 was 0.75 µM. With C=CCn1c(SCC(=O)Nc2cc(Cl)ccc2Cl)nc2sc(C)cc2c1=O the IC50 was 0.07 µM. Compound COc1cc(C=C(C2=NC(=O)CS2)c2nc3cccnc3n2C)ccc1O has an IC50 of 1 µM. Cc1cc(Cl)ccc1OC(C)C(=O)N1CCc2ccccc21 (centres undefined) gave an IC50 of 0.67 µM. Cc1cc(Oc2cc(NC(=O)c3sc4ncn(Cc5ccccc5F)c(=O)c4c3C)cc([N+](=O)[O-])c2)ccc1Cl showed an IC50 of 1.15 µM. Work on COc1cc(Cc2cnc(N)nc2N)cc(OCCCCCCC(=O)O)c1OC yielded an IC50 of 0.94 µM. Compound CC(=O)Nc1ncc(C(=O)Nc2ccc(-c3cccc(-c4nc5ccc(C(F)(F)F)cc5[nH]4)c3)cc2)s1 has an IC50 of 0.26 µM. Compound CCNc1cc(C(=O)N[C@@H](Cc2ccccc2)[C@H](O)CN[C@H](C)c2ccccc2)cc(N2CCCC2=O)c1 has an IC50 of 0.05 µM. N#Cc1ccc(N[C@@H](CC2CCCCC2)C(=O)NCc2cc(Cl)cc(Cl)c2)c2ccccc12 gave an IC50 of 1.1 µM. For CN(C)Cc1ccc(-c2cc3c(-c4ccc(CN(C)C)cc4)ccnc3[nH]2)cc1, the IC50 was 0.89 µM. For Cc1ccc(S(=O)(=O)/N=C(\N)NC(N)=O)cc1, the IC50 was 0.79 µM. With Cc1ccc(CNC(=O)[C@H](Cc2ccccc2)Nc2cc(C)nc(NCC3CCCCC3)n2)cc1 the IC50 was 0.9 µM. Compound CN1CCCN(Cc2ccc(-c3cccc(NC(=O)c4cccc(F)c4)c3)cc2)CC1 has an IC50 of 0.98 µM. With CCCCCN=C(N)c1ccc(OCCCCCOc2ccc(C(N)=NCCCCC)cc2)cc1 the IC50 was 0.25 µM. Work on Cc1noc(C)c1-c1cccc(CNCc2cccc(-c3ccc(-c4nc5ccc(C(F)(F)F)cc5[nH]4)s3)c2)c1 yielded an IC50 of 0.17 µM. Work on CCN(CC)CCN(Cc1ccc(-c2ccc(C(F)(F)F)cc2)cc1)C(=O)Cn1c(CCc2cccc(C#N)c2)nc(=O)c2ccccc21 yielded an IC50 of 0.77 µM. O=C(CCc1cccc(O)c1)NCC(NCCCNc1cc(=O)c2ccccc2[nH]1)c1cc(Br)cc(Br)c1 (centres undefined) gave an IC50 of 1.17 µM. Compound O=C(Nc1ccc(N2CCNCC2)cc1)c1ccn2ncc(-c3cccc(Cl)c3)c2n1 has an IC50 of 0.92 µM. In the case of O=C(CCc1cccnc1)Nc1cccc(-c2ccc(-c3nc4ccc(C(F)(F)F)cc4[nH]3)s2)c1, the IC50 is reported as 0.95 µM. With Cn1c(NC(=O)CCCCCNC(=O)c2ccc(O)c(-c3ccc(Cl)c(Cl)c3)c2)nc2ccccc21 the IC50 was 0.73 µM. Compound Nc1c(Cl)cc(C(O)CNCCCCCOCCc2ccc3ccccc3n2)cc1Cl (centres undefined) has an IC50 of 1.02 µM. COc1ccc(C(=O)N2CCN(c3ccc([N+](=O)[O-])c(NC4CC4)c3)CC2)cc1Br showed an IC50 of 0.8 µM. Cc1ccc(CC(C)NCC(O)c2cccc(C(F)(F)F)c2)cc1F (centres undefined) showed an IC50 of 0.92 µM. Compound Fc1ccc2nc(-c3cccc(-c4ccc(CNCCN5CCNCC5)cc4)c3)[nH]c2c1 has an IC50 of 0.9 µM. COc1ccc(Nc2nccc(N3CCC(NC(=O)Nc4cccc(OC)c4)C3)n2)cc1 (centres undefined) gave an IC50 of 0.42 µM. With CCN(CCCN1CCCCC1)c1cc(C)nc(Nc2ccc(C)cc2C(F)(F)F)n1 the IC50 was 0.54 µM.
